Measurements reported in patent US11760785B2, “Glucose transporter inhibitor-modified insulin for glucose-responsive insulin delivery” (NORTH CAROLINA STATE UNIVERSITY, priority 2017, dated 2023).

Key:
[1] = test system: glucose transporter (GLUT) on erythrocyte ghosts; experiment: binding to erythrocyte ghosts as the model of glucose transporter
Description: In order to conjugate GLUT inhibitors to […], the GLUT inhibitors were first functionalized with an amino group to facilitate their conjugation to insulin (FIGS. 2 and 3). […] For inhibitor 2 (In2), an amino group was introduced through Michael addition reaction while maintaining the main structures unchanged. In order to conjugate insulin to forskolin and inhibitor 2, insulin was firstly reacted with Traut's reagent to introduce a thiol group and used directly for conjugating inhibitors, which was also beforehand reacted with SMCC crosslinker.

[2] = test system: type 1 diabetic mouse model induced by STZ; experiment: in vivo therapeutic efficacy, blood glucose levels in type 1 diabetic mice; conditions: STZ type 1 diabetic mice; 300 IU/kg insulin conjugate, 150 IU/kg free insulin
Description: PBS was used as a control. The dose was set to 300 IU/kg for insulin conjugate and 150 IU/kg for free insulin to avoid severe hypoglycemia. Error bars represent the S.D. of three independent experiments (n=3).
(§1) PBS was used as a control.

[3] = type: physicochemical
Description: Herein, a new strategy utilizing the in situ living cells as the carrier for insulin was developed. […] In addition, the introduction of water-insoluble inhibitors onto insulin can greatly reduce its water solubility at pH 7.4. After subcutaneously injected, insulin conjugate formed a depot beneath the skin, which can slowly release insulin conjugate into the blood. Then, insulin conjugate reaches the GLUT on living cells, including adipose cells, muscle cells and blood cells, during blood circulation and consequently establishing an insulin pool. Of note, the GLUT pool on living cells can also buffer the high level of insulin in blood in the initial period post-injection and works as the reservoir of insulin to smooth the level of blood insulin. The adsorption of insulin-conjugate to cell membranes is in a dynamic balance with insulin conjugate in interstitial fluid and blood under a normoglycemic state. The insulin conjugate binding on living cell membranes can be released in a glucose-triggered manner under a hyperglycemic state because of the competitive binding from elevated glucose level.
In order to conjugate GLUT inhibitors to […], the GLUT inhibitors were first functionalized with an amino group to facilitate their conjugation to insulin (FIGS. 2 and 3). For forskolin, the introduction of the amino group and alkyl chains can enhance its binding affinity to GLUT. […]

diabetic mice [4] = conditions: mouse, in vivo, sc
Description: The in vivo therapeutic efficacy of insulin conjugates was evaluated in type 1 diabetic mouse model induced by STZ. The diabetic mice were assigned to four groups treated with insulin conjugates or native insulin. PBS was used as a control.

diabetic mice [5] = experiment: multiple intraperitoneal glucose tolerance test; type: in vivo, mouse; conditions: subcutaneous injection, 400 IU/kg insulin conjugate
Description: Insulin-F was subcutaneously injected. The dose was set to 400 IU/kg for insulin conjugate. Error bars represent the S.D. of three independent experiments (n=5).
as §1

## C=C1[C@@H](C)[C@H]2[C@H](Cc3ccccc3)NC(=O)[C@]23OC(=O)/C=C/[C@H](O)CCC[C@@H](C)C/C=C/[C@H]3[C@@H]1O [cytochalasin B, reference compound]
[1]; competitor against insulin-F binding, indicates the binding is GLUT specific
  inhibition of insulin-F binding on erythrocyte ghosts: could be inhibited

## insulin [free insulin]
[2]
  time blood glucose level maintained within the normal range (<200 mg/dL): three

## insulin-forskolin: insulin conjugated via Traut's reagent thiol and SMCC crosslinker to amino-functionalized forskolin, a GLUT inhibitor
[3]
  solubility at pH 7.4: insoluble
Diabetic mice [4]
  long-lasting behavior by living imaging: long-lasting behavior of insulin-F was further confirmed
Diabetic mice [5]
  blood-glucose-regulating ability in multiple glucose tolerance test: long-lasting blood-glucose-regulating ability
[1]; erythrocyte ghosts as the model of glucose transporter
  binding to erythrocyte ghost membrane: able to bind to membrane
